According to PMC4286326 (Journal of the American Chemical Society, 2014):
Like-named read-outs stand apart in the source and are kept apart here.

Legend:
[1] = molecular target: WT M2 (A/M2) (Influenza A virus, UniProt P0DOF5); test: biochemical
[2] = in vitro; details: dog
[3] = system: WT M2-expressing A/Udorn/72; test: microbe, parasite or virus in culture; assay type: cell-based; details: Influenza A virus, MDCK, read-out: A/Udorn/72 (S31) EC50

Chain of WT M2 (A/M2) (P0DOF5 whole entry, looked up): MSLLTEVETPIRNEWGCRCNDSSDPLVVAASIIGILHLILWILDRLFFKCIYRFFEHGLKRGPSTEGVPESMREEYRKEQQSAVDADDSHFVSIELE

| SMILES | inhibition at 100 µM ([1]; read-out: % WT inhibition) [%] | inhibition at 100 µM ([1]; read-out: % WT(S31) inhibition) [%] | CC50 [2] [µM] | EC50 [3] [µM] |
| --- | --- | --- | --- | --- |
| Brc1ccc(CNC23CC4CC(CC(C4)C2)C3)s1 [Compound 11, N-[(5-bromothiophen-2-yl)methyl]adamantan-1-amine] | 77 | 77 | 123 | 4.6 |
| NC12CC3CC(CC(C3)C1)C2 [Compound 1, amantadine, reference compound] |  |  | > 300 | 0.3 |
